Common to all, as to assay type: biochemical
One assay has as its target PDGFRaV561D kinase (Homo sapiens, UniProt P16234, V561D). The assay can be described thus: PDGFRaV561D kinase inhibition assay (LanthaScreen TR-FRET). The following applies: read-out: PDGFRa IC50. Here is the method: PDGFRaV561D Kinase Inhibition Assay
(§1) LanthaScreen™ is the detection of Time-Resolved Fluorescence Resonance Energy Transfer (TR-FRET) using lanthanide chelates to measure interactions between various binding partners. The application of TR-FRET to assay kinase activity was first described by Mathis (1995). A TR-FRET assay was used to measure PDGFRaV561D kinase inhibitory activity. The assay panel was run on a Biomek FX liquid handling workstations. To the assay plates containing […] compound or control solutions, 4.5 μL of buffer A (50 mM TRIS-HCl pH 7.4, 2 mM DTT, 0.02% Tween 20, 0.02 mM Na3VO4, H2O nanpure) including a generic concentration of ATP (2 μM f.c.) was added per well, followed by 4.54 of buffer B (4 uM ATP in Buffer A) including a generic concentration of polyEAY (50 nM f.c.), PDGFRaV561D kinase, and divalent cations. Final concentration of kinase and cations were: [PDGFRaV561D kinase]=4.4 nM, [Mn]=10 mM. After 1 hour of incubation the kinase reactions were stopped by the addition of 4.5 μL of stop solution D (50 mM EDTA, 20 mM TRIS-HCl pH 7.4, 0.04% NP-40) immediately followed by 4.5 μL of buffer A (50 mM TRIS-HCl pH 7.4, 2 mM DTT, 0.02% Tween 20, 0.02 mM Na3VO4, H2O nanpure) including the Tb-labeled P-20 antibody to give a total detection volume of 184. After an incubation time of 45 min in the dark, the plates were transferred into the Pherastar fluorescence reader for counting. The effect of compound on the enzymatic activity was obtained from the linear progress curves and determined from one reading (end point measurement).

Another assay deals with FGFR3 kinase (Homo sapiens, UniProt P22607). Kind of assay: FGFR3 kinase inhibition assay (LanthaScreen TR-FRET). The protocol: FGFR3 Kinase Inhibition Assay
as §1, with “FGFR3” for “PDGFRaV561D”, “4.5 μL” for “4.54”, “[FGFR3 kinase]=0.20” for “[PDGFRaV561D kinase]=4.4”, “[Mg]=3 mM, [Mn]=3” for “[Mn]=10”, “18 μL.” for “184.”
On the technique in general: In TR-FRET formats the signal depends on donor and acceptor labels being close together.

In another assay the target is PKCα (Homo sapiens, UniProt P17252). The assay can be described thus: PKCα kinase Caliper assay. The following applies: read-out: PKC IC50. The protocol: PKCα and cABLT315 Kinase Caliper Assays
Assays were performed in 384 well microtiter plates. Each assay plate contained 8-point serial dilutions for test compounds, as well as two 16-point serial dilutions of staurosporine as reference compound, plus 16 high- and 16 low controls. Liquid handling and incubation steps were done on a Thermo CatX workstation equipped with a Innovadyne Nanodrop Express. Between pipetting steps, tips were cleaned in wash cycles using wash buffer. Plates with terminated kinase reactions were transferred to the Caliper LC3000 workstations for reading. Phosphorylated and unphosphorylated peptides were separated using the Caliper microfluidic mobilitishift technology and Kinase activities were calculated from the amounts of formed phospho-peptide.
1. 0.05 μA Compound (start with 1.8 mM in 90% DMSO/10% H2O)
2. +4.5 μl 2× peptide/ATP solution
3. +4.5 μl 2× enzyme solution
4. Incubate for 60 min at 30° C.
4. +16 μl stop/run buffer
Independent of the kinase, all reactions were done performed in 50 mM HEPES, pH 7.5, 1 mM DTT, 0.02% Tween20, 0.02% BSA, and 0.6% DMSO.

Another assay concerns the target PIM2 (Homo sapiens, UniProt Q9P1W9). The assay can be described thus: Pim 2 AlphaScreen assay (high ATP). The note with it: read-out: Pim2 IC50. The method, boiled down: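 IC50 values rest on detection of phosphorylated Bad peptide: after a ~2 h kinase reaction, an EDTA stop buffer containing anti-phospho Ser/Thr antibody, Protein A and streptavidin AlphaScreen beads was added and read after overnight dark incubation. ATP was high (11-125× Km), with 2.5% DMSO in pH 7.5 Hepes buffer containing MgCl2, BSA, Tween-20 and DTT.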

pIC50: −log10 of the molar value. Read-outs that look alike come from different tables or passages of the source.

Broadly, the pIC50 is the negative decadic logarithm of the IC50, by convention in mol/L.

Chain of FGFR3 kinase (P22607 23-806): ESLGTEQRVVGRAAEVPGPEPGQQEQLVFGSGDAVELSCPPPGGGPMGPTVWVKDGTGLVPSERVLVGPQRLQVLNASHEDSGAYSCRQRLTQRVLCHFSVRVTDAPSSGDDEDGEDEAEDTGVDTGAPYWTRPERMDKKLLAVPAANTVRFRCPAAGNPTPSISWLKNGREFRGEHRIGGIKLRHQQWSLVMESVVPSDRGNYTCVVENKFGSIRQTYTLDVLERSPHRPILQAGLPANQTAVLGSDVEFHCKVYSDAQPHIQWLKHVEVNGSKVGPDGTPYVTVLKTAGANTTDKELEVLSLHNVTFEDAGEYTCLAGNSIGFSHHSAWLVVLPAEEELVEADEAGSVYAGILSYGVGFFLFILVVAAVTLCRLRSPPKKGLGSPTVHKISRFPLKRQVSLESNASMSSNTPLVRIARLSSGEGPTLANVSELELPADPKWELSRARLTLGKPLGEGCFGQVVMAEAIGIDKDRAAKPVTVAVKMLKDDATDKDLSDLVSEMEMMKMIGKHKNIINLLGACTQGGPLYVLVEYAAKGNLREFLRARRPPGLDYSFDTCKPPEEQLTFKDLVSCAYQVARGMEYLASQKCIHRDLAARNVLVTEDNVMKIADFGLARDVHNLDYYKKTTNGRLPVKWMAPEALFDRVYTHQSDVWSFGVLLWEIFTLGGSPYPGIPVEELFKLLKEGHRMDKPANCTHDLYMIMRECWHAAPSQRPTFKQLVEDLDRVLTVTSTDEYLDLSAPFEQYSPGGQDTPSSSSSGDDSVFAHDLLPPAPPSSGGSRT
Chain of PDGFRaV561D kinase (P16234 24-1089 V561D): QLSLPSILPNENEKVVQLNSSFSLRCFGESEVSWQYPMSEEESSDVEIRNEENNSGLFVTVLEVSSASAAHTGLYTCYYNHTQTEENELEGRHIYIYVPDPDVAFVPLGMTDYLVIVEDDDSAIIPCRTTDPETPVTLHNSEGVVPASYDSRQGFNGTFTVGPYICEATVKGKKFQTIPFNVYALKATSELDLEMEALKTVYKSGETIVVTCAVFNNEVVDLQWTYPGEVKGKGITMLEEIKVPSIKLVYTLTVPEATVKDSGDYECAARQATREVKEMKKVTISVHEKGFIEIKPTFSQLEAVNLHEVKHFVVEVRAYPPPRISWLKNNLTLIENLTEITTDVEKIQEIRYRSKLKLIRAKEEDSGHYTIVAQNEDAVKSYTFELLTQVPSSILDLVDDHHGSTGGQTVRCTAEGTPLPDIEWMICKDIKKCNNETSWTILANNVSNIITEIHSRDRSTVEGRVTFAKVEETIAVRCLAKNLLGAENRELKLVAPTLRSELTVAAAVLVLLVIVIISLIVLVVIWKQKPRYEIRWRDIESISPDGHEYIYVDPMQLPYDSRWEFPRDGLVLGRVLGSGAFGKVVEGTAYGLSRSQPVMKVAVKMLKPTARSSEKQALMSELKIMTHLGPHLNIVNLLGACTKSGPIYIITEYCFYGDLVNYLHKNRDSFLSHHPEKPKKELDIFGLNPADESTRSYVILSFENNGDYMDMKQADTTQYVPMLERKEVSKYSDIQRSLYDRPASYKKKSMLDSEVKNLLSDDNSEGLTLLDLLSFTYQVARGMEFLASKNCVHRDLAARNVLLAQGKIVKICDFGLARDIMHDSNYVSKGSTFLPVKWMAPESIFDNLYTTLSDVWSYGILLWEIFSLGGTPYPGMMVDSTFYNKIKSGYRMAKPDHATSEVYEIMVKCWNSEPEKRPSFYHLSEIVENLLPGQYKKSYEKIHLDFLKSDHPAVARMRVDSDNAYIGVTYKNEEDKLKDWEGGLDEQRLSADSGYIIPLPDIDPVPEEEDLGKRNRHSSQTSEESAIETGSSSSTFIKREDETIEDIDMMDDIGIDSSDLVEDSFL
Chain of PIM2 (Q9P1W9 whole entry): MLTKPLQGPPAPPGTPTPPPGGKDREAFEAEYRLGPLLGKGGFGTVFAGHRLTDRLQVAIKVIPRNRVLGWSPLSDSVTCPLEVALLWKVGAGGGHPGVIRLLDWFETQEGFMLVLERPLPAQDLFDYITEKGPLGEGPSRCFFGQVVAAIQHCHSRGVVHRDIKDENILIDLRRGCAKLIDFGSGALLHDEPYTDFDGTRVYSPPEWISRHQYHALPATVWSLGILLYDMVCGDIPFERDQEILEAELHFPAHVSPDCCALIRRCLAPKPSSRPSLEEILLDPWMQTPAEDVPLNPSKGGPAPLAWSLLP

As for `CC[C@]1(O)[C@H](O)C[C@H](c2ccncc2NC(=O)c2nc(-c3c(F)cccc3F)ncc2N)O[C@@H]1C` [Example 143, 5-amino-2-(2,6-difluorophenyl)-N-(4-((2R,4R,5S,6R)-5-ethyl-4,5-dihydroxy-6-methyltetrahydro-2H-pyran-2-yl)pyridin-3-yl)pyrimidine-4-carboxamide], the pIC50 on PDGFRaV561D kinase, against FGFR3 kinase and on PKCα was < 5.00 throughout.

For the compound `Nc1ncc(-c2ccccc2)nc1C(=O)Nc1cnccc1[C@H]1C[C@@H](O)[C@@]2(O)CCCC[C@H]2O1` [Example 173, 3-amino-N-(4-((2R,4R,4aS,8aR)-4,4a-dihydroxyoctahydro-2H-chromen-2-yl)pyridin-3-yl)-6-phenylpyrazine-2-carboxamide], the pIC50 on PDGFRaV561D kinase is 7.32; against FGFR3 kinase, 7.35; on PKCα, 6.51.

As to `Nc1ncc(-c2ccccc2)nc1C(=O)Nc1cnccc1[C@@H]1C[C@H](O)[C@]2(O)CCCC[C@@H]2O1` [Example 176, 3-amino-N-(4-((2S,4S,4aR,8aS)-4,4a-dihydroxyoctahydro-2H-chromen-2-yl)pyridin-3-yl)-6-phenylpyrazine-2-carboxamide], the figures for the pIC50 at PDGFRaV561D kinase, at FGFR3 kinase and at PKCα were 5.10, 5.10 and 5.59, respectively.

`O=C(Nc1cnccc1[C@H]1C[C@@H](O)[C@@]2(O)CCCC[C@H]2O1)c1c[nH]cc(-c2ccccc2)c1=O` [Example 178, N-(4-((2R,4R,4aS,8aR)-4,4a-dihydroxyoctahydro-2H-chromen-2-yl)pyridin-3-yl)-4-oxo-5-phenyl-1,4-dihydropyridine-3-carboxamide]: the pIC50 at PDGFRaV561D kinase, against FGFR3 kinase and at PKCα was < 5.00 each time.

Consider `Nc1ncc(-c2ccccc2)nc1C(=O)Nc1cnccc1[C@H]1C[C@@H](N)[C@@]2(O)CCC[C@H]2O1` [Example 183, 3-amino-N-(4-((2R,4R,4aS,7aR)-4-amino-4a-hydroxyoctahydrocyclopenta[b]pyran-2-yl)pyridin-3-yl)-6-phenylpyrazine-2-carboxamide], for which the pIC50 on PIM2 is 7.12; at PDGFRaV561D kinase, 7.64; against FGFR3 kinase, 7.36; on PKCα (PKCα Caliper assay), 7.47.

Turning to `Nc1ncc(-c2ccccc2)nc1C(=O)Nc1cnccc1[C@@H]1C[C@H](O)[C@]2(O)CCC[C@@H]2O1` [Example 186, 3-amino-N-(4-((2S,4S,4aR,7aS)-4,4a-dihydroxyoctahydrocyclopenta[b]pyran-2-yl)pyridin-3-yl)-6-phenylpyrazine-2-carboxamide], the pIC50 on PDGFRaV561D kinase was < 5.00; at FGFR3 kinase, 5.43; on PKCα it was 6.12.

In the case of `Nc1ncc(-c2ccccc2)nc1C(=O)Nc1cnccc1[C@H]1C[C@@H](O)[C@@]2(O)CCC[C@H]2O1` [Example 195, 3-amino-N-(4-((2R,4R,4aS,7aR)-4,4a-dihydroxyoctahydrocyclopenta[b]pyran-2-yl)pyridin-3-yl)-6-phenylpyrazine-2-carboxamide], the figures for the pIC50 on PDGFRaV561D kinase, on FGFR3 kinase and on PKCα were 7.48, 7.96 and 6.64, respectively.

For `O=C1CC[C@H]2O[C@@H](c3ccncc3NC(=O)c3ccc(F)c(-c4c(F)cccc4F)n3)C[C@@H](O)[C@@H]2N1` [Example 196, 6-(2,6-difluorophenyl)-5-fluoro-N-(4-((2R,4R,4aS,8aR)-4-hydroxy-6-oxooctahydro-2H-pyrano[3,2-b]pyridin-2-yl)pyridin-3-yl)picolinamide], the pIC50 at PDGFRaV561D kinase, at FGFR3 kinase and on PKCα was < 5.00 throughout.

In the case of `N[C@@H]1C[C@H](c2ccncc2NC(=O)c2ccc(F)c(-c3c(F)cccc3F)n2)O[C@@H]2CCC[C@]12O` [Example 210, N-(4-((2R,4R,4aS,7aR)-4-amino-4a-hydroxyoctahydrocyclopenta[b]pyran-2-yl)pyridin-3-yl)-6-(2,6-difluorophenyl)-5-fluoropicolinamide], the pIC50 at PDGFRaV561D kinase was 6.40; against FGFR3 kinase it was < 5.00; on PKCα, < 5.00.

For the compound `Nc1cnc(-c2c(F)cccc2F)nc1C(=O)Nc1cnccc1[C@H]1C[C@@H](N)[C@@]2(O)CCC[C@H]2O1` [Example 213, 5-amino-N-(4-((2R,4R,4aS,7aR)-4-amino-4a-hydroxyoctahydrocyclopenta[b]pyran-2-yl)pyridin-3-yl)-2-(2,6-difluorophenyl)pyrimidine-4-carboxamide], the pIC50 at PDGFRaV561D kinase was 5.40; on FGFR3 kinase it was < 5.00; on PKCα it was < 5.00.

As for `N[C@@H]1C[C@H](c2ccncc2NC(=O)c2ccc(F)c(-c3c(F)cccc3F)n2)O[C@@H]2CCC[C@H]12` [Example 224, N-(4-((2R,4R,4aR,7aR)-4-aminooctahydrocyclopenta[b]pyran-2-yl)pyridin-3-yl)-6-(2,6-difluorophenyl)-5-fluoropicolinamide], the pIC50 at PDGFRaV561D kinase is 6.41; at FGFR3 kinase it was < 5.00; on PKCα (PKCα Caliper assay), < 5.00.

`N[C@H]1C[C@@H](c2ccncc2NC(=O)c2csc(-c3c(F)cccc3F)n2)O[C@H]2CCC[C@H]21` [Example 230, N-(4-((2S,4S,4aS,7aS)-4-aminooctahydrocyclopenta[b]pyran-2-yl)pyridin-3-yl)-2-(2,6-difluorophenyl)thiazole-4-carboxamide]: the figures for the pIC50 at PDGFRaV561D kinase, at FGFR3 kinase and on PKCα (PKCα Caliper assay) were 5.82, < 5.00 and 5.96, respectively.

Consider `CC[C@]1(O)[C@H](N)C[C@H](c2ccncc2NC(=O)c2ccc(F)c(-c3c(F)cccc3F)n2)O[C@@H]1C` [Example 232, N-(4-((2R,4R,5S,6R)-4-amino-5-ethyl-5-hydroxy-6-methyltetrahydro-2H-pyran-2-yl)pyridin-3-yl)-6-(2,6-difluorophenyl)-5-fluoropicolinamide], for which the pIC50 at PDGFRaV561D kinase was 6.20; at FGFR3 kinase, < 5.00; at PKCα (PKCα Caliper assay) it was 5.02.

Consider `CC(C)(C)[C@H]1O[C@@H](c2ccncc2NC(=O)c2nc(-c3ccccc3)cnc2N)C[C@H](N)[C@@H]1O` [Example 286, 3-amino-N-(4-((2R,4S,5S,6R)-4-amino-6-tert-butyl-5-hydroxytetrahydro-2H-pyran-2-yl)pyridin-3-yl)-6-phenylpyrazine-2-carboxamide], for which the negative logarithm of the IC50 (pIC50) at PIM2 is 7.19; at PDGFRaV561D kinase, 6.55; against FGFR3 kinase, 6.15.

The values above are taken from US20130109682A1, “CYCLIC ETHER COMPOUNDS USEFUL AS KINASE INHIBITORS” (NOVARTIS AG, priority 2010, published 2013).
